Among the data in patent publication US20080070865A1, “TRIPHENYLPHOSPHINE OXIDE DERIVATIVES AND USES THEREOF” (Redpoint Bio Corporation, priority 2006, published 2008) are IC50 values, retold here.

The term IC50 denotes the concentration at which inhibition is half-maximal.

The experiment concerns the target T1, human TRPM5 ion channel (Homo sapiens, UniProt Q9NZQ8).
T1 construct: expressed in transfected cells
T1 sequence (Q9NZQ8 1-1165): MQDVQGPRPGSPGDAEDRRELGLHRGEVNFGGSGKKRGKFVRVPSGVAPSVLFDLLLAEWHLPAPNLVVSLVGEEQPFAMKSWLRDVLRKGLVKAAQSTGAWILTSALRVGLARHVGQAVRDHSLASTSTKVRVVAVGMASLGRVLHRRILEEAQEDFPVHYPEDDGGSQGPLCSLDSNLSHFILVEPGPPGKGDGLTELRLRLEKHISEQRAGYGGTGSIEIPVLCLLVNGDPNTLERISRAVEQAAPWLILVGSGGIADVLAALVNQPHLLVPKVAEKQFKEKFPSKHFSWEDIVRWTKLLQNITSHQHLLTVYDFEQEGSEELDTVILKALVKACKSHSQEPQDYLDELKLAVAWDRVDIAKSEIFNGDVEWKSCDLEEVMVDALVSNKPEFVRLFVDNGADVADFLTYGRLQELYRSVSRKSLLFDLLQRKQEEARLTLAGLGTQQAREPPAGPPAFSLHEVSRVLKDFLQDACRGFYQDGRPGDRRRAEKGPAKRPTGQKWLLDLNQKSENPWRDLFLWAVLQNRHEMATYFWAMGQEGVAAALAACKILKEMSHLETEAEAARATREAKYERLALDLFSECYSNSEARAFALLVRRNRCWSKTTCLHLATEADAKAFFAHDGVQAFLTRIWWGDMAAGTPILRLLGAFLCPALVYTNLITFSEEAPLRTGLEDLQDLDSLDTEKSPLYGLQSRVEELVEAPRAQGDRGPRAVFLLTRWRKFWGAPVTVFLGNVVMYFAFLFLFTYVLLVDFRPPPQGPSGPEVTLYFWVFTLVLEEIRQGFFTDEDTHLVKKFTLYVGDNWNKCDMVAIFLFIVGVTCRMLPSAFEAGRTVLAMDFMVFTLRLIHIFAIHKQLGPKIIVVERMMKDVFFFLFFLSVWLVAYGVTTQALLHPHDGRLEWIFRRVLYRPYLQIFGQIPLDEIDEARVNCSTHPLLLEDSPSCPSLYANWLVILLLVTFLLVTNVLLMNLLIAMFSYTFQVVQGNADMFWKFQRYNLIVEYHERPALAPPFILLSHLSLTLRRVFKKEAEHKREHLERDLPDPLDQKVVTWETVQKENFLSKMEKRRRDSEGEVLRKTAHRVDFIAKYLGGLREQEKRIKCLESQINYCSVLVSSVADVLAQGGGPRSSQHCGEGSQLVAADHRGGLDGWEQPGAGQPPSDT
The experiment can be described thus: TRPM5 FLIPR membrane potential assay. The class given is cell-based. The note with it: HEK293 cells stably expressing human TRPM5, membrane potential dye, stimulation with 3 μM ATP. How it is done:
The activity of human TRPM5 ion channel was measured in live cells on a fluorescent imaging plate reader (FLIPR). The basis of the assay (shown in FIG. 1) is the calcium-dependent activation of the ion channel which occurs by activation of a G-protein coupled receptor (GPCR). GPCR activation by an appropriate agonist causes a transient increase in […] Ca^2+ ion concentration which in turn causes the ion channel to open, letting in Na^+ ions. This influx causes a change in the membrane potential of the cell which can be monitored as a change in the fluorescent signal from voltage-dependent (membrane potential) fluorescent dyes. […] For the screening assay, the human TRPM5 gene was cloned, put into HEK293 cells, and a stable, high expression clone was used for screening. Cells were grown in standard media at 37° C. The day before screening, the cells were removed from flasks and added to 384 well clear bottom plates (8K cells in 20 μL/well). On the assay day, 20 μL of membrane potential dye (Part No. R8123, Molecular Devices Corp.) was added to the cells and dye was allowed to be taken up, i.e., load, into the cells for 1 hr at 37° C. […] The assay was started by addition of 10 μL of solution from the compound plate into the cell plate. During this process, continuous fluorescent recordings were made simultaneously for all wells. After addition of the compound solution, the tips were automatically washed and a stimulation solution of 3 μM ATP (an agonist for an endogenous purinurgic GPCR, was added to all wells of the cell plate. The height of the response was calculated and percent inhibition values, versus negative control wells, was calculated for the test samples. Unless otherwise indicated, the data in the table below were determined using the three assays described above, providing percent inhibition data at 10 μM.
Compound `CN(C)c1ccc(P(=O)(c2ccc(N(C)C)cc2)c2ccc(N(C)C)cc2)cc1` [Example 6] gave a 50% inhibitory concentration (IC50) of over 100 µM.

Consider `O=P(c1ccccc1)(c1ccccc1)c1ccccc1O` [Example 2], for which it took 5 µM to reach half-maximal inhibition (IC50).

`Nc1ccccc1P(=O)(c1ccccc1)c1ccccc1` [Example 4] showed an IC50 of 5 µM.

In turn, `O=P(c1ccccc1)(c1ccccc1)c1ccccc1` [Example 1] displayed an IC50 of 5 µM.

Turning to `O=P(c1ccccc1)(c1ccccc1)c1ccc(O)cc1` [Example 3], the midpoint of inhibition, the IC50, lay at 5 µM.

Compound `COc1ccccc1P(=O)(c1ccccc1)c1ccccc1` [Example 5] had an IC50 of over 100 µM.
